ChEMBL document CHEMBL1146883, “5'-O-tritylinosine and analogues as allosteric inhibitors of human thymidine phosphorylase” (J Med Chem, 2006)

The compounds below were run against T1, Thymidine phosphorylase (Homo sapiens, UniProt P19971).
T1 sequence (P19971 whole entry): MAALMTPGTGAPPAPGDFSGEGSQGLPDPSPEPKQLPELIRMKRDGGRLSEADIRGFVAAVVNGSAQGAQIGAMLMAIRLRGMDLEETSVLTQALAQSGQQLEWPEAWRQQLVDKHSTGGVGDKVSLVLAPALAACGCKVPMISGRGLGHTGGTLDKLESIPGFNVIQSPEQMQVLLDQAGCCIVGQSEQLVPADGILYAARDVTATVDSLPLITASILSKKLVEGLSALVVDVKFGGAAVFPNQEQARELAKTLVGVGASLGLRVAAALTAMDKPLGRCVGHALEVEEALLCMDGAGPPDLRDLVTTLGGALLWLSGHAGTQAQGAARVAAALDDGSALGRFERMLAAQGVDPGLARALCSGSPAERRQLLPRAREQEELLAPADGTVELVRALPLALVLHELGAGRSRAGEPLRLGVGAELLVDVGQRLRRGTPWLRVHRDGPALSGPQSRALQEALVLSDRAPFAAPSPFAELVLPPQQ
Description: Inhibition of human TPase in presence of 100 uM thymidine

Row | IC50 | Structure (SMILES)
1 | ≥ 40 µM | NC(=O)c1ncn([C@@H]2O[C@H](COC(c3ccccc3)(c3ccccc3)c3ccccc3)[C@@H](O)[C@H]2O)c1N
2 | > 20 µM | COCCOCn1cnc2c(ncn2[C@@H]2O[C@H](COC(c3ccccc3)(c3ccccc3)c3ccccc3)[C@@H](OC(C)=O)[C@H]2OC(C)=O)c1=O
3 | > 100 µM | COCCOCn1cnc2c(ncn2[C@@H]2O[C@H](COC(c3ccccc3)(c3ccccc3)c3ccccc3)[C@@H](O)[C@H]2O)c1=O
4 | 137 µM | CNC(=O)c1ncn([C@@H]2O[C@H](COC(c3ccccc3)(c3ccccc3)c3ccccc3)[C@@H](O)[C@H]2O)c1N
5 | > 200 µM | OC[C@@H](COC(c1ccccc1)(c1ccccc1)c1ccccc1)O[C@H](CO)n1cnc2c(O)ncnc21
6 | > 200 µM | O=c1c2ncn([C@@H]3O[C@H](COCc4ccccc4)[C@@H](O)[C@H]3O)c2ncn1Cc1ccccc1
7 | > 75 µM | COCCOCNC(=O)c1ncn([C@@H]2O[C@H](COC(c3ccccc3)(c3ccccc3)c3ccccc3)[C@@H](O)[C@H]2O)c1N
